From US10772944B2, “Bacterial ghosts for the treatment of cancer” (BIRD-C GMBH, priority 2016, dated 2020)

System: CT26 mouse colorectal carcinoma
Details: one cycle: BGs 4x10^8 at D4, oxaliplatin 6 mg/kg i.p. at D4, D6; harvest D18
Description: Treatment of mice started three days after tumor inoculation and comprised of either one or two cycles of BGs administration combined with either two or four drug administrations, respectively. Furthermore, part of mice was treated with either two or four drug administrations without the extra addition of BGs. Survival and animal behavior were monitored until the section day; animal weights were documented once per week. Tumor presence and burden were assessed at the section day including organ screening and photo documentation.
The mice were inoculated intraperitoneally (in lower left quadrant) with 1×10^5 cells of CT26 mouse colorectal carcinoma cells and randomly distributed into the seven groups (D1).
Three days after tumor inoculation (D4) the first group of animals (Group #1) received 100 μl of 5% glucose solution for injection (solvent) administered intraperitoneally at the same place as used for tumor inoculation.
Mice from Group #2.1 were injected intraperitoneally at D4 and D6 (five days after tumor inoculation) with 6 mg/kg oxaliplatin reconstituted in 100 μl of 5% glucose solution for injection at the same place as used for tumor inoculation. […]

For `O=C1[O][Pt]2([NH][C@@H]3CCCC[C@H]3[NH]2)[O]C1=O` [oxaliplatin], the “tumor burden (weight of collected tumor tissues) versus control” value was “tumor mass reduction detected”.
